This is an account of results in ChEMBL document CHEMBL1201862, “PubChem BioAssay data set” (2004).

Among the test systems are A498; COLO 205; HCT-15; HL-60; M19-MEL; MOLT-4; NCI-H460; NCI-H522; OVCAR-3; RPMI-8226; SK-MEL-2; SK-MEL-5; SW-620; U-251; UACC-62; HOP-92; Hs-578T; MCF7; MDA-MB-231; RXF 393.
What all share (experiment): NCI-60 cell line screen, 48 h

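A five-concentration, 48-hour dose response in 96-well plates underlies each endpoint, interpolated linearly between surrounding concentrations. GI50: concentration for 50% inhibition of growth.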 The source made the active and inactive calls. Cut-off read from the data, not from the text of the source: active = GI50 up to about 1.1 µM and inactive = higher.

For `Cc1[nH]c(=O)nc(N/N=C/c2ccc(O)cc2)c1C(=O)Nc1ccc(Cl)cc1`, the GI50 in the assay on A498 is > 100 µM (inactive); in the assay on COLO 205, > 100 µM (inactive); in the assay with HCT-15, > 100 µM; in the assay on HL-60, > 100 µM (inactive); with M19-MEL, > 100 µM (inactive); with MOLT-4, > 100 µM (inactive). Besides, the GI50 in the assay with NCI-H460 is > 100 µM (inactive); in the assay with NCI-H522, > 100 µM (inactive); in the assay on OVCAR-3, > 100 µM (inactive); in the assay on RPMI-8226, > 100 µM (inactive); in the assay with SK-MEL-2, > 100 µM (inactive); with SK-MEL-5, 88.1 µM (inactive). The GI50 in the assay with SW-620, in the assay with U-251 and with UACC-62 was > 100 µM (inactive) in each case.

Take `NC(=O)c1cccc([N+](=O)[O-])c1`: the GI50 in the assay with A498 is > 100 µM (inactive); with COLO 205, > 100 µM (inactive); in the assay with HCT-15, > 100 µM; with HL-60, > 100 µM (inactive); in the assay with M19-MEL, > 100 µM (inactive); in the assay on MOLT-4, > 100 µM (inactive). Besides, the GI50 in the assay on NCI-H460, in the assay with NCI-H522, with OVCAR-3, in the assay on RPMI-8226, with SK-MEL-2 and in the assay with SK-MEL-5 was > 100 µM (inactive) throughout. The GI50 with SW-620, with U-251 and with UACC-62 was > 100 µM (inactive) in each case.

On to `COC(=O)c1c(CC(Cc2ccc3c(c2)CCCC3)C(=O)O)ccc2c1CCCC2` (stereo not drawn), for which the GI50 with A498 is 25 µM (inactive); in the assay on COLO 205, 18.3 µM (inactive); in the assay with HCT-15 it was 18 µM; in the assay on HL-60 it was 23 µM (inactive); with HOP-92, 25.2 µM (inactive); in the assay on Hs-578T, 25.8 µM (inactive). The GI50 was 31.6 µM (inactive) in the assay with MCF7; 27.9 µM (inactive) in the assay with MDA-MB-231; 37.1 µM (inactive) with MOLT-4; 21.9 µM (inactive) in the assay with NCI-H460; 11.6 µM (inactive) in the assay with NCI-H522; 18.8 µM (inactive) in the assay on OVCAR-3. Further, the GI50 was 27.6 µM (inactive) in the assay on RPMI-8226; 35.2 µM (inactive) with RXF 393; 20.9 µM (inactive) in the assay on SK-MEL-2; 34.4 µM (inactive) with SK-MEL-5; 40.7 µM (inactive) in the assay with SW-620; 37.2 µM (inactive) in the assay with U-251. Also, the GI50 in the assay with UACC-62 was 22.4 µM (inactive).

`Cc1nc2ccccc2n1Cc1ccc(NC(=S)NC2CCCCC2)cc1`: the GI50 was 33.6 µM (inactive) with A498; 31.1 µM (inactive) in the assay on COLO 205; 8.95 µM in the assay on HCT-15; 25.6 µM (inactive) in the assay with HL-60; 41.3 µM (inactive) in the assay with HOP-92; 29 µM (inactive) with Hs-578T. Also, the GI50 with MCF7 is 4.86 µM (inactive); with MDA-MB-231, 38.1 µM (inactive); in the assay on MOLT-4 it was 5.36 µM (inactive); in the assay on NCI-H460, 35.5 µM (inactive); with NCI-H522 it was 8.34 µM (inactive); in the assay with OVCAR-3, 10.8 µM (inactive). Besides, the GI50 was 13.4 µM (inactive) in the assay with RPMI-8226; 23.8 µM (inactive) in the assay with RXF 393; 15.7 µM (inactive) with SK-MEL-2; 4.14 µM (inactive) in the assay with SK-MEL-5; 41.3 µM (inactive) with SW-620; 32.6 µM (inactive) in the assay on U-251. Also, the GI50 with UACC-62 is 6.3 µM (inactive).

Turning to `COc1cc(/C=C(\C#N)C(=O)c2ccccc2)ccc1O`, the GI50 was > 100 µM (inactive) in the assay with A498; > 100 µM (inactive) with COLO 205; > 100 µM in the assay on HCT-15; 46.6 µM (inactive) in the assay on HL-60; > 100 µM (inactive) in the assay with M19-MEL; > 100 µM (inactive) in the assay with MOLT-4. Further, the GI50 is > 100 µM (inactive) in the assay on NCI-H460; > 100 µM (inactive) with NCI-H522; 34.4 µM (inactive) in the assay on OVCAR-3; > 100 µM (inactive) in the assay on RPMI-8226; > 100 µM (inactive) in the assay on SK-MEL-2; > 100 µM (inactive) with SK-MEL-5. The GI50 in the assay with SW-620, with U-251 and in the assay on UACC-62 was > 100 µM (inactive) throughout.
